Data: patent publication US20250195501A1, “CELL ENTRY-MODULATING AGENTS AND USES THEREFOR” (priority 2020, published 2025)
Read-outs that look alike come from different tables or passages of the source.

Key:
[1] = target: T1, ACE2:RBD-mimic1 peptide interaction (Homo sapiens, UniProt Q9BYF1); test: Direct competition SPR: compound vs RBD-mimic1 peptide binding to human ACE2; settings: compound and RBD-mimic1 peptide flowed at 1 μM over human ACE2
T1 construct: purchased R&D Systems and Assay Matrix (ACE2); Mimotopes (peptide)
T1 sequence (Q9BYF1 18-740 limits assumed): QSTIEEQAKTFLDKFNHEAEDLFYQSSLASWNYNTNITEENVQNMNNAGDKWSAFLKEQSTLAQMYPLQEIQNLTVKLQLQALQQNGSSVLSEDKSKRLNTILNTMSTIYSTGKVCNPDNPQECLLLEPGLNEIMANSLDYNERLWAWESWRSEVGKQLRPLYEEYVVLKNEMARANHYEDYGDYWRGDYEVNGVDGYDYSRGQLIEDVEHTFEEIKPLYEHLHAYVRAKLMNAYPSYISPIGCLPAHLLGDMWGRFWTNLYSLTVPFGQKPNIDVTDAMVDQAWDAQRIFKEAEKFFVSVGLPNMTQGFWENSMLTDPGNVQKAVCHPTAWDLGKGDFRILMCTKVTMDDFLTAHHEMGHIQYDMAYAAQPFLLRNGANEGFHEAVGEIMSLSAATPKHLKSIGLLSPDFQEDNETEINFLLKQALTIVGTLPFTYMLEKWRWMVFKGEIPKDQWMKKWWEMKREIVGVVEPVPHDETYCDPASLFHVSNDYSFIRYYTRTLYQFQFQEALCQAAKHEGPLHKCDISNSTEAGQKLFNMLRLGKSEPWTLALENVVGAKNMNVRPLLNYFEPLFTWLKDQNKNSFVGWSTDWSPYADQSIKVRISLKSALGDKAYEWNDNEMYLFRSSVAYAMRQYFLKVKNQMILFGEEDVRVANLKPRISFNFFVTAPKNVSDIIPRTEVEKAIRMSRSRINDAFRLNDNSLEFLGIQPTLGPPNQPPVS
Protocol: Peptide alone, compound alone and the competition. Percentage competition is calculated by the reduction in final peptide binding divided by the difference between the peptide and the compound alone.
All SPR sensorgrams and results plots were analyzed with Biacore S200 Evaluation Software (GE Healthcare Life Sciences).

Vero-E6 cells = settings: for CC50: read-out: CC50 Mean ± SD, Vero-E6 cells, 24 h at 37° C., no virus, alamarBlue
SARS-CoV-2 = test: microbe, parasite or virus in culture; type: cell-based; settings: for IC50: read-out: IC50 Mean ± SD (SARS-CoV-2 infection); for SI (selectivity index, CC50/IC50): Vero-E6 cells

Row | Compound | 1:1 Competition between compound vs RBD-mimic1 peptide @ 1 μM (block: Yes/Partial) [1] | toxicity toward Vero-E6 cells in the infection assay (Vero-E6 cells) | IC50 (SARS-CoV-2; Severe acute respiratory syndrome coronavirus 2, Vero C1008, 24 h) [µM] | SI (selectivity index, CC50/IC50) (SARS-CoV-2) | CC50 (Vero-E6 cells) [µM] | 1:1 Competition between compound vs RBD-mimic1 peptide @ 1 μM (percentage competition) [1] | IC50 (SARS-CoV-2) [µM]
1 | COC[C@H]1C[C@@H](c2nc(-c3ccc4c(c3)COc3cc5c(ccc6nc([C@@H]7CC[C@H](C)N7C(=O)[C@@H](NC(=O)OC)C(C)C)[nH]c65)cc3-4)c[nH]2)N(C(=O)[C@H](NC(=O)OC)c2ccccc2)C1 [Velpatasvir] | Partial | toxicity was observed |  |  |  |  | 
2 | Ledipasvir | Partial | toxicity was observed |  |  |  |  | 
3 | Cc1ccc(C(=O)Nc2ccc(S(=O)(=O)O)c3cc(S(=O)(=O)O)cc(S(=O)(=O)O)c23)cc1NC(=O)c1cccc(NC(=O)Nc2cccc(C(=O)Nc3cc(C(=O)Nc4ccc(S(=O)(=O)O)c5cc(S(=O)(=O)O)cc(S(=O)(=O)O)c45)ccc3C)c2)c1 [Suramin] |  |  | 28.1 ± 1.2 | >21.6 | > 1000 |  | 
4 | CCc1c2c(nc3ccc(OC(=O)N4CCC(N5CCCCC5)CC4)cc13)-c1cc3c(c(=O)n1C2)COC(=O)[C@]3(O)CC [Irinotecan] | Yes | toxicity was observed |  |  |  | (100% ± 6.36) | 
5 | CC1(C)CCC(CN2CCN(c3ccc(C(=O)NS(=O)(=O)c4ccc(NCC5CCOCC5)c([N+](=O)[O-])c4)c(Oc4cnc5[nH]ccc5c4)c3)CC2)=C(c2ccc(Cl)cc2)C1 [Venetoclax] | Partial | toxicity was observed |  |  |  |  | 
6 | Cc1cc(-c2ccc(/N=N/c3ccc4c(S(=O)(=O)[O-])cc(S(=O)(=O)[O-])c(N)c4c3O)c(C)c2)ccc1/N=N/c1ccc2c(S(=O)(=O)[O-])cc(S(=O)(=O)[O-])c(N)c2c1O.[Na+].[Na+].[Na+].[Na+] [Evans Blue] | completely block and Yes | low toxicity |  | >35.6 | > 1000 | ~100% | 28.1 ± 1.2
